Assay results taken from publication PMC6030159 (Scientific Reports, 2018).
“Also recorded” adds a separate entry of the source. Blank lines part the entries; values can stand above or below the compound they belong to.

How the values were obtained:
[1] = tested on: MYCN-amplified neuroblastoma cells (IMR-32, Kelly, SK-N-DZ); experiment: Resazurin growth assay, MYCN-amplified neuroblastoma cell lines; format: cell-based, human; settings: MYCMI-6 6.25 μM, MYCMI-11 and MYCMI-14 25 μM, 10058-F4 64 μM, 48 hours
Excerpt: HEK293A, MCF7, MDA-MB231, SK-N-F1, SK-N-RA, SK-N-AS, COS-7, HeLa, BJ cells, and Rat1 fibroblasts TGR-1 (wt), HO15.19 (MYC knockout) and HOmyc3 (MYC reconstituted HO15.19) were maintained in DMEM. The neuroblastoma cell lines Kelly, IMR-32 and SK-N-DZ, and the Burkitt’s lymphoma cell lines Mutu, Daudi and ST486 were kept in RPMI. SK-N-BE(2) cells were maintained in a 1:1 mixture of EMEM and F12 media, supplemented with 1% non-essential amino acid solution (NEAA) and 0.5% Glutamine. U2OS-MYC-ER cell lines were cultured in phenol-red free DMEM and treated with 100 nM 4-hydroxytamoxifen (HOT) (Sigma-Aldrich) to activate MYC-ER. IMR-90 was maintained in MEM. All media were supplemented with 10% FBS and 1% penicillin and streptomycin and kept at 37 °C and 5% CO2. All cell lines were mycoplasma free. Cell proliferation assays were performed as described in Supplementary Information. […]
Cell proliferation assays. Cell growth and viability was estimated in triplicates with WST-1
(Roche) or Resazurin sodium salt (Sigma-Aldrich) assays in medium at 37°C and 5% CO 2 for
2 hours after which absorbance or fluorescence, respectively, was measured with an Omega
Fluostar (BMG Labtech) in a 96 well plate format. […]

MYC = biological target: MYC; set-up: method as in PMID 24859015; settings: read-out: KD for MYC by SPR; cited from earlier work
[2] = tested on: tumor cell growth in vivo; settings: cited from earlier work
[3] = tested on: MYC-family protein levels; set-up: method as in PMID 28976731, PMID 24859015, PMID 23733953; settings: cited from earlier work
MYCbHLHZip:MAXbHLHZip = biological target: T1, MYCbHLHZip:MAXbHLHZip (Homo sapiens, UniProt P01106); experiment: SPR MYC:MAX heterodimer formation assay; format: binding; settings: KJ-Pyr-9 up to 10 μM
T1 construct: 6xHis (N); made in house; host or cells: E. coli BL21 (DE3), pET28a
Protocol: The SPR method is a highly sensitive assay to determine the affinity between protein and ligand and to measure the kinetics of the interaction. In the SPR MYC:MAX interaction assay, MAXbHLHZip was covalently attached onto a sensor chip and MYCbHLHZip pre-mixed with compound was injected over the surface and thereafter allowed to dissociate.
The SPR experiments were performed at 25 °C using a Biacore T200 (GE Healthcare) instrument kindly provided by SciLifeLab Solna. An amino coupling procedure was used to immobilize protein on a CM5 sensor chip (GE Healthcare). Sensorgrams were generated by subtraction of the reference (blank immobilized) surface. All details will be described in Castell et al. (manuscript in preparation). In general, for the MYC:MAX interaction assay, 200–500 RU of MAXbHLHZip was immobilized and 100 nM MYCbHLHZip pre-incubated with compound in PBS supplemented with 0.05% Tween-20 and 1% DMSO was injected with a flow rate of 30 µl/min and allowed to dissociate. MAX was regenerated by injection of PBS buffer supplemented with Urea.

MYC bHLHZip = biological target: T2, MYC bHLHZip (Homo sapiens, UniProt P01106); experiment: SPR direct binding to immobilized MYC; settings: up to 8 μM
T2 construct: 6xHis (N); made in house; host or cells: E. coli BL21 (DE3), pET28a; purified in denaturing conditions
Protocol: Further, MYCMI-6 binding to MAX, MXD1 (MAD1) (Figs 4C and S5C and D), p53 (Fig. 4D), BSA (Suppl. Fig. S5E) and YFP (data not shown) were negligible. Binding to BCL-XL was only 10% of the theoretical maximum at 2 μM MYCMI-6 (Suppl. Fig. S5F).
The MYC SPR assay was carried out as described above with MYCbHLHZip immobilized to a level of 800–1000 RU. For kinetic binding experiments, a Langmuir 1:1 binding event was applied using the Biacore T200 Evaluation Software 2.0 (GE Healthcare) to determine association (ka) and dissociation (kd) constants of the compound and to calculate affinity (KD) by the formula; KD = kd/ka. Binding responses from equilibrium binding experiments were plotted against compound concentration and KD values were determined at 50% of the theoretical Rmax with the formula Rmax = (MW analyte/MW ligand) × immobilized ligand level on the chip (RU) × stoichiometry (1:1). Same coupling method described above was used to immobilize the control proteins. MAX was immobilized to approximately 2000 RU, MAD to 600 RU, BSA to 1000 RU, p53 to 3000 RU and BCL-XL, to 500 RU.

recombinant MYC:MAX:DNA = tested on: recombinant MYC:MAX:DNA; set-up: method as in PMID 28976731, PMID 25114221; settings: fluorescence polarization; read-out: IC50, MYC:MAX:DNA interaction; cited from earlier work
MAX:MAX:DNA = tested on: MAX:MAX:DNA; set-up: method as in PMID 28976731, PMID 25114221; settings: fluorescence polarization; read-out: IC50, MAX:MAX:DNA interaction; cited from earlier work
MAX = tested on: MAX; set-up: method as in PMID 25114221; settings: cited from earlier work
MYC:MAX = tested on: T3, MYC:MAX; experiment: Gaussia luciferase complementation (GLuc) MYC:MAX; format: cell-based, human; settings: 25 μM, 17 hours, HEK293 cells
T3 construct: fused to full length MYC (MYC-GLuc-C) and MAX (MAX-GLuc-N), respectively; expressed in transfected cells; host or cells: HEK293
Protocol: The protein fragment complementation assay using the Gaussia luciferase has been described. 0.2–0.4 μg of each GLuc-construct (see Supplementary Information) together with 0.05–0.2 μg pCMV-Luc (Firefly luciferase) were transiently transfected into HEK293 or COS-7 cells in 6-well plates. 24 hours later cells were treated with compound (10–25 μM) or DMSO. After another 17 hours, the cells were harvested and lyzed in passive lysis buffer (Promega) supplemented with complete protease inhibitor (Roche). After 60 min incubation at room temperature 20 μM D-luciferin was added (substrate of Firefly luciferase) and luminescence was measured in a Lumat LB9501 (Berthold) or OmegaFluostar (BMG Labtech) luminometer. Directly after, Gaussia luciferase substrate Coelenterazine (Promega) was added to a final concentration of 20 μM in a mixture with “Stop n’ Glow” (Promega) and the luciferase activity was measured. The ratio between Gaussia and Firefly luciferase values were calculated and normalized to DMSO-treated control cells.

endogenous MYC protein = experiment: Western blot of endogenous MYC in HeLa cells; format: cell-based; settings: 10 μM, 24 hours
Protocol: These assays were performed essentially as described in[67],[68]. For further information on immunohistochemistry, and on primers and antibodies, see Supplementary Information.

T1 sequence (P01106 367-447 limits assumed): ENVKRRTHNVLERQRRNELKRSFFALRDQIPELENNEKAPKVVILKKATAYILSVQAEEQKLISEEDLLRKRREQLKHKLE
T2 sequence (P01106 367-447 limits assumed): as above

SMILES: CCc1ccc(/C=C2/SC(=S)NC2=O)cc1 [10058-F4]
growth of MYCN-amplified versus MYCN-non-amplified neuroblastoma cell lines [1]: reduced growth of the MYCN-amplified cell lines significantly stronger than the MYCN-non-amplified cell lines
Kd (MYC): ~40 µM
tumor cell growth in vivo, mouse tumor models [2]: Inhibition of tumor cell growth in vivo
effect on MYC-family protein levels [3]: down-regulate

SMILES: O=[N+]([O-])c1ccc(Nc2ccccc2-c2ccccc2)c2nonc12 [10074-G5]
Kd (MYC): ~32 µM
effect on MYC-family protein levels [3]: down-regulate

binding to immobilized MYC (SPR), in words (MYC bHLHZip): not detect any binding
SMILES: NC(=O)c1ccc(-c2cc(-c3ccc([N+](=O)[O-])cc3)nc(-c3ccco3)c2)cc1 [KJ-Pyr-9]
effect on MYC:MAX formation (SPR), in words (MYCbHLHZip:MAXbHLHZip): no effect; also recorded: not affect the MYC:MAX interaction
IC50 (recombinant MYC:MAX:DNA): ~10 µM
IC50 (MAX:MAX:DNA): ~30 µM
tumor cell growth in vivo, mouse tumor models [2]: Inhibition of tumor cell growth in vivo
binding to MAX, BSI (MAX): not MAX

SMILES: CCN(CC)CC[n+]1ccc2c(C)c3[nH]c4ccccc4c3c(C)c2c1 [MYCMI-7]
MYC:MAX GLuc activity (MYC:MAX): most potent
effect on endogenous MYC protein levels (western blot) (endogenous MYC protein): reduced MYC protein expression
